Results reported in patent publication US6737397B1, “Control of cancer growth through the interaction of [MET5]-enkephalin and the zeta receptor” (The Penn State Research Foundation, priority 1996, dated 2004).
Where “and” joins values, the source holds several entries; their conditions need not be identical. Equal entries are not always repeated. Where two headings read alike, the source gives them in different places. Marks after values point to notes of the source that are not given here.

Assays:
ζ-opioid receptor [1] = target: T1, ζ-opioid receptor (Homo sapiens, UniProt Q9NZT2); test: Effect of cations and guanyl nucleotides on [3H]-[Met5]-enkephalin binding to HT-29 nuclear homogenates; set-up: from tissue; host or cells: HT-29 human colon tumor xenografts grown in athymic nude mice; nuclear (P1) and other subcellular fractions; conditions: 5, 100, 200, or 500 μM
T1 sequence (Q9NZT2 1-677): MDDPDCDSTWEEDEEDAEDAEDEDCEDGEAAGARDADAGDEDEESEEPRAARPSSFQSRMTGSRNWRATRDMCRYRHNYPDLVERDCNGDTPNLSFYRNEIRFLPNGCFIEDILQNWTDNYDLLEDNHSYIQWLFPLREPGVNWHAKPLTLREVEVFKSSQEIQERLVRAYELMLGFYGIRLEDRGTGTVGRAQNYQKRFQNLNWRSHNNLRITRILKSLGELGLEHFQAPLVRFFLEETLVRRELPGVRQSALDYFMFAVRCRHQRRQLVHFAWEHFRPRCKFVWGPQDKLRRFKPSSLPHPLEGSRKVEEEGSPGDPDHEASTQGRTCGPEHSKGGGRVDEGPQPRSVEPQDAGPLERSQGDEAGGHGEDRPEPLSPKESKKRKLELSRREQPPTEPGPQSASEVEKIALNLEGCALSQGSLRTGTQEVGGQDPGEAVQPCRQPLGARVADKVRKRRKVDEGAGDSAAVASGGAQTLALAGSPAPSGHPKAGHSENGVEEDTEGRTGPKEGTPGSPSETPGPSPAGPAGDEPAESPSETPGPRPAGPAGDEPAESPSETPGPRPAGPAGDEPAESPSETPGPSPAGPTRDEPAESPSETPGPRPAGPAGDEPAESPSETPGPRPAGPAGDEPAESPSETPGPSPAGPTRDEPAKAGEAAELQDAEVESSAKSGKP
Excerpt: Histograms represent the percent of specific binding±SE.

ζ opioid receptor = ζ opioid receptor (Homo sapiens, UniProt Q9NZT2)
Protocol: Receptor binding assays were performed according to procedures reported elsewhere [8] with some slight modifications. […] Six assays were performed to establish binding kinetics in control tumor tissue, whereas three independent assays were conducted on tumors from mice for comparison of OGF and control groups.
Receptor binding data were analyzed with a Lundon 1 (Saturation Isotherm Binding Analysis) computer program (Lundon Software, Chagrin Falls, Ohio) and Prism Software (San Diego, Calif.). Both analyses utilized non-linear least-squares regression. Saturation curves and Scatchard plots were computed directly by these programs.
Mean binding affinities and capacities for tumor tissue from animals in the OGF and control groups were compared using analysis of variance and Newman-Keuls tests.

ζ-opioid receptor [2] = target: T1, ζ-opioid receptor
ζ-opioid receptor [3] = target: T1, ζ-opioid receptor; conditions: nuclear preparation of cultured HT-29 cells
ζ-opioid receptor [4] = target: T1, ζ-opioid receptor; conditions: for Bmax, fmol/mg protein: subcellular fractionation, P1 nuclear fraction
μ-opioid receptor = target: T2, μ-opioid receptor (Homo sapiens, UniProt P35372); test: [3H]DAMGO binding to HT-29 nuclear (P1) and membrane (P2) homogenates; conditions: P2 fraction
T2 construct: from tissue; host or cells: HT-29 human colon tumor xenografts from nude mice; nuclear (P1) and membrane (P2) homogenates

HT-29 cells = test: Growth assay (cell counts) of HT-29 human colon cancer cells in culture; format: cell-based
Protocol: In some examples, cultures of HT-29 cells were maintained in McCoy's 5A media without fetal calf serum.
(§1) Cells were seeded at equivalent amounts into 75 cm^2 flasks or into 9.6 cm^2 wells (6-well plates, Falcon) and were counted 24 hr later to determine plating efficiency. Drugs or sterile water were added beginning 24 hr after seeding (=0 hours) and both media and drugs were changed daily. All drugs were prepared in sterile water and dilutions represent final concentrations of the compounds. At appropriate times, cells were harvested with 0.05% trypsin/0.53 mM EDTA, centrifuged, and counted with a hemacytometer at 200×. Cell viability was determined by trypan blue staining. At least 2 aliquots/flask or well were counted and 2 flasks or wells/time point/treatment group were sampled.

[5] = target: T3, [Met5]-enkephalin receptor (Homo sapiens, UniProt Q9NZT2); test: [3H]-[Met5]-enkephalin binding on HT-29 cells after 48 h exposure to OGF or NTX (receptor regulation)
T3 construct: endogenous in cells; host or cells: HT-29 human colon cancer cells, log phase, nuclear pellet (P1)
T3 sequence (Q9NZT2 1-677): T1 sequence (Q9NZT2 1-677)
Protocol: Log phase cells were incubated in 0.05% trypsin for at least 30 min with gentle agitation at 37° C. in order to reduce clumping of cells and facilitate isolation of cell nuclei. Preparations were homogenized (Polytron, setting 6, 2×10 sec) in a 1:20 (wt/vol) solution (=Tris/all) of cold 50 mM Tris HCl buffer with 0.1 mg/ml bacitracin, 1 μg/ml leupeptin, 60 nM thiorphan, 1 mM EGTA, and 0.6 mg/l PMSF, pH 7.4, at 4° C. […] Protein homogenates of P1 were diluted with Tris/all and incubated at room temperature (22° C.) for 20 min to remove endogenous opioid peptides.
The final volume of the incubation mixture was 1 ml. The incubation was terminated by rapid filtration through Whatman GF-B filters under vacuum pressure with a Brandel Cell Harvester. Filters were rinsed three times with 5 ml volumes of ice-cold 50 mM Tris buffer, dried at 60° C. for 1 hour, and counted in a 2:1 solution of Aquasol-toluene by liquid scintillation spectrometry (Beckman LS-2800). […] Duplicate tubes of homogenates were assayed for each-concentration utilized. Protein concentrations were determined by the BioRad method with gamma globulin as a standard.

COLO 205 cells = test: Growth assay (cell counts) of COLO 205 human colon cancer cells; format: cell-based; conditions: 10^−6 M, 48 hr
Protocol: (§2) HT-29, WiDr, and COLO 205 cell lines were obtained from the American Type Culture Collection (Rockville, Md.). HT-29 cells were grown in McCoy's 5A media (modified), WiDr cells in Minimum Essential Media, and COLO 205 cells in RPMI 1640 media; all media contained 10% fetal calf serum, 2 mM […], 1.2% sodium bicarbonate and antibiotics (11 Units/ml penicillin, 10 μg/ml streptomycin, 10 μg/ml neomycin) in a humidified atmosphere of 7% CO2/93% air at 37° C. In some examples, cultures of HT-29 cells were maintained in McCoy's 5A media without fetal calf serum.
as §1
(§3) To examine the ubiquity of opioid activity with respect to colon cancer, two other colon cancer cell lines were investigated: COLO 205 and WiDr.

WiDr cells = test: Growth assay (cell counts) of WiDr human colon cancer cells; format: cell-based; conditions: 10^−6 M, 48 hr
Protocol: as §2, §1, §3

[6] = tested on: BxPC-3 human pancreatic tumor cells; test: BxPC-3 human pancreatic tumor xenografts in nude mice treated with OGF; format: in vivo
Protocol: BxPC-3 human pancreatic cancer cells, purchased from the American Type Culture Collection (Rockville, Md.), were grown in RPMI media containing 10% fetal calf serum, penicillin (10 units/ml), and streptomycin (100 μg/ml) in an atmosphere of 93% air and 7% CO2 at 37° C. Cell viability was determined by the trypan blue exclusion test. Three-to-4-week-old male athymic nude mice, obtained from Charles River Laboratories (Wilmington, Mass.), were injected subcutaneously over the right shoulder with BxPC-3 cells (log phase) in a 0.5 ml suspension of RPMI media. The day of tumor cell inoculation was considered day 0. Mice were evaluated daily and the date that the tumor became ‘visible’ was recorded. Individual tumors were measured with vernier calipers every 2 days. Measurements of the largest perpendicular dimensions were recorded and tumor volume was calculated using the formula: length×width^2×0.5[25]. The time of ‘initial’ appearance of a tumor wag considered to be the day when tumor volume was 5 mm^3 of greater. All mice were euthanized and necropsied 30 days after tumor cell inoculation. Tumor tissues for receptor binding assays, radioimmunoassays, and immunocytochemistry were rapidly frozen in liquid nitrogen and stored at −70° C. until assayed.
Drug treatment was initiated on the day of tumor cell inoculation. […] Injections were administered in the right or left flank. Animals were weighed weekly and appropriate dosage adjustments made.
The latencies for visible and initial tumor appearance, as well as the appearance of a tumor volume measuring 62.5 mm^3 (when each perpendicular measurement was 5 mm), were recorded.
Latencies for visible and initial appearance as well as tumors ≧62.5 mm were analyzed using one way analysis of variance; subsequent comparisons were made with the Newman-Keuls tests. The number of mice with initial tumor appearance on selected days was expressed as a ratio of the total number of mice in the group, and comparisons of percentages were made with chi-square tests.

ζ-opioid receptor [7] = target: T1, ζ-opioid receptor; test: Competition for binding of [3H][Met5]enkephalin (4.0 nM) in nuclear homogenates of HT-29 human colon tumors; set-up: from tissue; host or cells: HT-29 human colon tumor xenografts grown in athymic nude mice; nuclear (P1) and other subcellular fractions
[8] = tested on: HT-29 human colon cancer cells; test: HT-29 human colon cancer xenografts in nude mice treated with OGF and/or naloxone
[9] = 5 mg/kg OGF three times daily s.c.

T2 sequence (P35372 whole entry): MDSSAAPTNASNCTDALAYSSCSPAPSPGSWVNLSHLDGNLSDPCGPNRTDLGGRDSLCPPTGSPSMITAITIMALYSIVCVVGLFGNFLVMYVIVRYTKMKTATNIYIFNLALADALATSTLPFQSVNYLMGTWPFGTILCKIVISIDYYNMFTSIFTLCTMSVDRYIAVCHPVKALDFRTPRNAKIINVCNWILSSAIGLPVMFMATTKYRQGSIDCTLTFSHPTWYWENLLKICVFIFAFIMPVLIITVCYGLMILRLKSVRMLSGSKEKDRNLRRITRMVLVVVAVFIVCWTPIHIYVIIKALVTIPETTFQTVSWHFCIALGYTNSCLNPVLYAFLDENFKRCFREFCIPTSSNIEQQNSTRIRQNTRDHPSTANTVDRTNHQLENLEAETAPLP

With Nc1nc2c(ncn2C2OC(COP(=O)([O-])OP(=O)([O-])NP(=O)([O-])[O-])C(O)C2O)c(=O)[nH]1.[Li+].[Li+].[Li+].[Li+] (stereo not drawn) [GppNHp, guanylyl-imidodiphosphate (GppNHp) tetralithium salt] the “effect on binding of [3H]-[Met5]-enkephalin” value (ζ-opioid receptor [1]) was “not markedly reduced”.
[^3H]-[Met^5]-enkephalin was tested, and the “binding capacity (Bmax)” value (ζ opioid receptor; tumor tissue from control animals) was 46.8±4.0 fmol/mg protein, the “Bmax, fmol/mg protein” value (ζ-opioid receptor [2]; Patient 1, splenic flexure adenocarcinoma) was 34.3 ± 9.0 fmol/mg protein and the “Bmax, fmol/mg protein” value (ζ-opioid receptor [2]; Patient 2, sigmoid adenocarcinoma) was 32.7 ± 1.4 fmol/mg protein. For the same compound, the “mean binding capacity (Bmax)” value (ζ-opioid receptor [2]; data from both patients averaged) was 33.5±4.1 fmol/mg protein, the “binding capacity (Bmax)” value (ζ-opioid receptor [3]) was 43 fmol/mg protein and the “mean binding capacity (Bmax)” value (ζ-opioid receptor [4]; P1 nuclear homogenates of HT-29 tumors, 150 min, 22° C., pH 7.4) was 364.8±25.7 fmol/mg protein. For the same compound, the “Bmax, fmol/mg protein” value (ζ-opioid receptor [4]) was 256.0±12.6 fmol/mg protein and the “Bmax, fmol/mg protein” value (ζ-opioid receptor [4]; listed as [^3H][Met^5]enkephalin) was 256.0 ± 12.6 fmol/mg protein.
C[C@@H](NC(=O)[C@@H](N)Cc1ccc(O)cc1)C(=O)NCC(=O)N(C)[C@@H](Cc1ccccc1)C(=O)NCCO [[3H]DAMGO] was tested, and the “Bmax, fmol/mg protein” value (μ-opioid receptor) was 20.9 ± 4.8 fmol/mg protein.
In the case of [Met^5]-enkephalin, the “cell number greater after removal than in cultures maintained with peptide” value (HT-29 cells) is reported as “more than 80%”, the “cell number versus controls” value (HT-29 cells) is reported as “comparable to controls” and the “decrease in cell number from control values” (HT-29 cells) is reported as 35%. The “effect on cell growth in serum-free media” value (HT-29 cells) was “inhibitory effect on cell growth”, the “more cells after removal than in cultures continuing to receive peptide” value (HT-29 cells) was 37% and the “reduction in number of colon cancer cells” value (HT-29 cells) was 41% and 56%. For the same compound, the “Bmax of [3H]-[Met5]-enkephalin” value ([5]; HT-29 cells after 48 h of exposure to the treatment) was 18.6 ± 1.1, the “Bmax reduced versus control cells” value ([5]; chronic exposure (48 h)) was 50% and the “fewer cells than control cultures” value (COLO 205 cells) was 58%. The “binding affinity versus control group” value (ζ opioid receptor; tumors from OGF-treated mice) was “did not differ”, the “binding sites reduced from control levels” value (ζ opioid receptor; tumors from OGF-treated mice) was 58% and the “Bmax, fmol/mg protein” value (ζ opioid receptor; tumors from mice treated with 5 mg/kg OGF three times daily) was 24.6 ± 5.2 fmol/mg protein. The “fewer cells than control cultures” value (WiDr cells) was 41%, the “Number of mice with tumors 7 days after tumor cell inoculation” value ([6]; 5 mg/kg OGF three times daily) was 0/13* and the “Number of mice with tumors 14 days after tumor cell inoculation” value ([6]; 5 mg/kg OGF three times daily) was 5/13*. For the same compound, the “Number of mice with tumors 15 days after tumor cell inoculation” value ([6]; 5 mg/kg OGF three times daily) was 8/13*, the “Number of mice with tumors 22 days after tumor cell inoculation” value ([6]; 5 mg/kg OGF three times daily) was 12/13 and the “Number of mice with tumors 30 days after tumor cell inoculation” value ([6]; 5 mg/kg OGF three times daily) was 12/13. For the same compound, the “interval from inoculation to initial tumor appearance longer than sterile water” value ([6]; 5 mg/kg OGF three times daily) was 43%, the “latency until tumor reached 62.5 mm^3 longer than control group” value ([6]; 5 mg/kg OGF three times daily) was roughly 41% and the “visible tumors developed later than controls” value ([6]; 5 mg/kg OGF three times daily) was “more than 3 days”. The “Latency (days) for tumors of 62.5 mm^3 in size” value [6, 9] was 17.2 ± 1.1 days, the “Latency (days) for visible tumor” value [6, 9] was 12.7 ± 1.4 days and the “Latency (days) for initial tumor appearance” value ([6]; 5 mg/kg OGF three times daily s.c., listed as OGF) was 15.2 days and 15.2 ± 1.2 days. The “animals without a neoplasia” value ([6]; day 15) was roughly 40%, the “mice with a tumor measuring ≧5 mm^3” value ([6]; fifteen days after tumor cell inoculation) was “less than 62%” and the “mean tumor volumes versus control group” value ([6]; within the 30 days of the experiment) was “no significant differences”. The “greater ability to displace [3H]-[Met5]-enkephalin than the next ranking compound” value (ζ-opioid receptor [7]) was 2.3 fold, the “Latency for measurable tumor appearance” value ([8]; 0.5 mg/kg daily) was 28.0 ± 0.0 days and the “Latency for measurable tumor appearance, days, range” value (shortened to “Latency … range”) ([8]; 0.5 mg/kg daily) was “(28) days”. The “Latency for palpable tumor” value ([8]; 0.5 mg/kg daily) was 18.6 ± 3.2 days, the “Latency for visible tumor” value ([8]; 0.5 mg/kg daily) was 22.4 ± 2.6 days and the “No. of mice with tumors 21 days after inoculation” value (shortened to “No. of mice with tumors 21 days”) ([8]; 0.5 mg/kg daily) was 2/14†. For the same compound, the “No. of mice with tumors 50 days after inoculation” value (“No. of mice with tumors 50 days” for short) ([8]; 0.5 mg/kg daily) was 7/14*, the “Latency for measurable tumor appearance” value ([8]; 5 mg/kg daily) was 22.2 ± 2.3 days and the “Latency … range” value ([8]; 5 mg/kg daily) was “(13-22) days”. For the same compound, the “Latency for palpable tumor” value ([8]; 5 mg/kg daily) was 19.2 ± 2.2 days, the “Latency for visible tumor” value ([8]; 5 mg/kg daily) was 20.2 ± 2.2 days and the “No. of mice with tumors 21 days” value ([8]; 5 mg/kg daily) was 4/14†. The “No. of mice with tumors 50 days” value ([8]; 5 mg/kg daily) was 6/14†, the “Latency for measurable tumor appearance” value ([8]; 25 mg/kg daily) was 24.0 ± 4.5 days and the “Latency … range” value ([8]; 25 mg/kg daily) was “(12-32) days”. The “Latency for palpable tumor” value ([8]; 25 mg/kg daily) was 22.0 ± 4.5 days, the “Latency for visible tumor” value ([8]; 25 mg/kg daily) was 23.0 ± 4.5 days and the “No. of mice with tumors 21 days” value ([8]; 25 mg/kg daily) was 2/14†. The “No. of mice with tumors 50 days” value ([8]; 25 mg/kg daily) was 6/14†, the “animals with a tumor” value ([8]; 50 days after inoculation, 0.5, 5, or 25 mg/kg OGF) was 36-50% and the “mice that never developed xenografts of colon cancer” value ([8]; all OGF doses, 7-wk experimental period) was 57%. For the same compound, the “mice with a measurable tumor” value ([8]; by day 21, 0.5, 5, or 25 mg/kg OGF) was 14-28% and the “dose-response of tumor incidence and delay in oncogenesis” value ([8]; mouse, in vivo) was “no distinct dose-response effect”.
